Format in all cases: ADME
Data set [1] is described as follows: Evaluated for the solubility in water at 5.8 pH of filtered solution. Particulars: pH 5.8, read-out: S.
A short description of data set [2]: Evaluated the half life period in distilled water at room temperature.
A short description of data set [3]: Evaluated the half life period in CH3CN / buffer, pH 7.4 at 37 degree C.
Data set [4] can be described thus: Evaluated for the solubility in 0.10 N HCl at 1.6 pH of filtered solution. The following applies: pH 1.6, read-out: S.
Data set [5] in a line: Evaluated for the solubility in water at 4.8 pH of filtered solution. The following applies: pH 4.8, read-out: S.
Data set [6] can be described thus: Evaluated for the solubility in pH 7.4 buffer suspended at 5 mg / mL at 7.4 pH of filtered solution.
A short description of data set [7]: Evaluated for the solubility in pH 6.0 buffer suspended at 5 mg / mL at 6.0 pH of filtered solution.
Data set [8] is described as follows: Evaluated for the solubility in 0.10 N HCl at 1.5 pH of filtered solution. The following applies: pH 1.5, read-out: S.
Data set [9] is described as follows: Evaluated for the solubility in water at 3.3 pH of filtered solution. Particulars: pH 3.3, read-out: S.
Data set [10] is described as follows: Evaluated for the solubility in water at 3.2 pH of filtered solution. Particulars: pH 3.2, read-out: S.
Data set [11] is described as follows: Evaluated for the solubility in 0.10 N HCl at 1.7 pH of filtered solution. Particulars: pH 1.7, read-out: S.

≈ marks a conversion by molar mass, not a printed value.

For the compound `CC(C)C[C@H](O)C(O)[C@H](CC1CCCCC1)NC(=O)[C@H](Cc1csc(N)n1)NC(=O)[C@H](Cc1ccccc1)NS(=O)(=O)N1CCOCC1` (stereo partly drawn), the solubility in [1] was 2 µg/mL (≈ 2.82 µM).

What is called half-life is how long it takes for the measured level to halve. A high value points to slow loss. Take `CC(C)C[C@H](O)C(OC(=O)[C@H](Cc1csc(N)n1)NC(=O)[C@H](Cc1ccccc1)NS(=O)(=O)N1CCOCC1)[C@@H](N)CC1CCCCC1` (stereo partly drawn): the half-life in [2] is greater than 96 h; in data set [3], 1 min.

For the compound `CC(C)C[C@H](O)C(O)[C@H](CC1CCCCC1)NC(=O)[C@H](Cc1csc(N)n1)NC(=O)[C@H](Cc1ccccc1)NS(=O)(=O)N1CCOCC1.Cl` (stereo partly drawn), the solubility in [4] was 6600 µg/mL; in data set [5], 20 µg/mL; in data set [6], 1 µg/mL; in data set [7] it was 1 µg/mL.

In the case of `CC(C)C[C@H](O)C(OC(=O)[C@H](Cc1csc(N)n1)NC(=O)[C@H](Cc1ccccc1)NS(=O)(=O)N1CCOCC1)[C@@H](N)CC1CCCCC1.Cl` (stereo partly drawn), the results for the solubility in [8] and in [9] were 54600 µg/mL and 17600 µg/mL, respectively.

Take `CC(C)C[C@H](OC(=O)[C@H](Cc1csc(N)n1)NC(=O)[C@H](Cc1ccccc1)NS(=O)(=O)N1CCOCC1)C(O)[C@@H](N)CC1CCCCC1.Cl` (stereo partly drawn): the solubility amounted to 20900 µg/mL in data set [10], 71300 µg/mL in data set [11], 300 µg/mL in [6] and 1940 µg/mL in data set [7].

Source of the values: ChEMBL document CHEMBL1126695, “Orally active water-soluble N,O-acyl transfer products of a beta,gamma-bishydroxyl amide containing renin inhibitor” (J Med Chem, 1993).
